Measured values published in US7195756B2, “Control of arthropod vectors of parasitic diseases” (Centers for Disease Control and Prevention, priority 2000, dated 2007).

How the values were obtained:
[1] = system: nymphal Ixodes scapularis; assay: Fipronil bioassay: treated laboratory mice challenged with nymphal ticks; type: in vivo; details: for % of nymphs fed to repletion: 20 μl single topical application
Method: Fipronil Bioassay: To better determine the most efficacious concentration of fipronil active ingredient for use in the bait box method of tick control, a trial was conducted using treated and untreated laboratory mice challenged with nymphal Ixodes scapularis. Individual groups of 5 mice were treated with 20 microliters (one drop) of 1%, 0.75%, 0.5% and 0.43% of fipronil topical oil formulation micropipetted between the scapulae. Five mice were used as untreated controls. Individual mice were challenged with 10 nymphs each on days 14, 28 and 42. During tick challenge mice were held over water in a triple barrier/cage system. Ticks that fed to repletion were collected from the water and used as a measurement for acaricidal activity.
4) Fipronil bioassay—A total of 25 mice and 750 nymphal I. scapularis were used in this laboratory trial. The volume of 20 microliters (one average-sized drop) was considered the smallest amount of liquid acaricide that a mouse would apply to itself on a single visit to a bait box.

I. spinipalpis = assay: Field trial Larimer County, Colorado: ticks on Neotoma mexicana, treated bait boxes; type: in vivo, Ixodes spinipalpis; parameters: I. spinipalpis control level: concentration or dose not given beside the values; details: for I. spinipalpis control level: tick burdens treated vs untreated rats, FRONT LINE TOP SPOT
Method: A field trial testing fipronil (FRONT LINE TOP SPOT®) on native rodent-associated ticks was conducted in a Rocky Mountains foothills habitat in Larimer County, Colo. Treated and untreated plots consisted of 35 rat dens within 5 hectares each. A mark-release-capture study with Neotoma mexicana began in April, and captured rats were anesthetized and ticks removed, identified and quantified. The principal tick on N. mexicana is I. spinipalpis, a nidicolous, competent vector in enzootic transmission cycles in Colorado, California and Oregon. […] Fipronil was passively applied to rats as they entered and exited modified commercially available bait boxes as described in Example 1. Treated bait boxes were set out in May, left in place, and retreated and rebaited at four-week intervals through August. Collections were made at 1, 4, 8, 12 and 16 weeks post-application. N. mexicana collected in the untreated control area numbered 92 with 150 total captures resulting in 1273 fleas and ticks. In the fipronil area, 110 individual rats were collected with a total of 179 captures resulting in 416 fleas and ticks.

Ixodes scapularis = assay: Field trial Mason's Island: tick burdens on white-footed mice, fipronil-treated bait boxes; type: in vivo; details: for mean number of larvae/mouse: treated area
Method: (§1) A field trial was conducted from April to September, 1999 on Mason's Island, Mystic, Conn. […] Four sites situated in undeveloped natural areas were used as untreated controls.
(§2) Modified Protecta Jr. (Bell Laboratories, Madison, Wis.) mouse bait boxes (FIG. 2) were used in this study. The modifications were as follows: a cotton yarn wick was stapled to the underside of the lid just in front of the feeding area entry; two adsorbent nylon strips were affixed to the outer edges of the food block trays. Two Detex monitoring blocks (Bell Laboratories, Madison, Wis.) were placed in each box, 2–3 ml of fipronil topical formulation was applied to the wick and adsorbent strips with a squirt bottle, and the lid was closed and locked with a set screw prior to placement on properties. A 0.43% w/w formulation of fipronil was used in May and June and this was replaced by a 1% w/w formulation from July through September.
(§3) White-footed mice were live-trapped using 3″×3″×10″ Sherman mouse traps (Sherman Trap Co., Tallahassee, Fla.). Pre-treatment trapping was conducted in April and May and post-treatment trapping from June through September to determine: 1) distribution of mice on individual properties, 2) tick burdens on animals, and 3) spirochete infection rates in mice between treated and untreated plots. Each mouse was anesthetized, ectoparasites were removed, ear tissue was collected for spirochete culture, mice were then bled, weighed, measured, ear-tagged and released at the point of capture. In July and August cloth drags were used to collect host-seeking larval ticks for comparison with results of host-associated tick data.
(§4) Based upon pre-treatment mouse distribution and abundance data, a total of 125 bait boxes were set out on 13 residences. Boxes were spaced approximately 30 feet apart along the interface with maintained landscaping and wood lot or scrub brush. The number of boxes/property ranged from 4 to 20, depending on property size and presence of suitable mouse habitat. Initial treatment with fipronil began on May 17 and at approximate 4-week intervals each box was re-baited with 2 food blocks and the wick and strips were replenished with 2–3 ml of fipronil formulation. A record of relative use by white-footed mice was kept for each box during the trial.

Borrelia burgdorferi = assay: Field trial Mason's Island: spirochete infection of white-footed mice (ear biopsy culture); type: in vivo
Method: as §1, §2, §3, §4
3) Impact of fipronil on the natural transmission cycle of B. burgdorferi—Individual captured mice were tested for infection with B. burgdorferi by culture of ear biopsy tissue in BSK H growth media.

[2] = recaptured adult white-footed mice following fipronil treatment, chi-square p = 0.01

## N#Cc1nn(-c2c(Cl)cc(C(F)(F)F)cc2Cl)c(N)c1[S+]([O-])C(F)(F)F (stereo not drawn) [Fipronil, 5-amino-3-cyano-1-(2,6-dichloro-4-trifluoromethylphenyl)-4-trifluoromethylsulfinylpyrazole]
[1]; 0.43% (85 μg/mouse), 14 days
  % of nymphs fed to repletion: 0%
[1]; 0.43% (85 μg/mouse), 28 days
  % of nymphs fed to repletion: 16%
[1]; 0.43% (85 μg/mouse), 42 days
  % of nymphs fed to repletion: 30%
[1]; 0.50% (100 μg/mouse), 14 days
  % of nymphs fed to repletion: 0%
[1]; 0.50% (100 μg/mouse), 28 days
  % of nymphs fed to repletion: 8%
[1]; 0.50% (100 μg/mouse), 42 days
  % of nymphs fed to repletion: 24%
[1]; 1.00% (200 μg/mouse), 14 days
  % of nymphs fed to repletion: 0%
[1]; 1.00% (200 μg/mouse), 28 days
  % of nymphs fed to repletion: 0%
[1]; 1.00% (200 μg/mouse), 42 days
  % of nymphs fed to repletion: 2%
[1]; 20 microliters (=150 micrograms)
  optimum concentration of fipronil to kill ticks on mice for 30 days after a single exposure: 0.75%
I. spinipalpis; fipronil area, 110 rats, 179 captures (untreated: 1273 from 150 captures)
  fleas and ticks collected: 416
I. spinipalpis; week 1 post-application
  I. spinipalpis control level: 25%
I. spinipalpis; week 4 post-application
  I. spinipalpis control level: 90%
I. spinipalpis; week 8 post-application
  I. spinipalpis control level: 75%
I. spinipalpis; week 12 post-application
  I. spinipalpis control level: 97%
I. spinipalpis; week 16 post-application
  I. spinipalpis control level: 93%
Ixodes scapularis; July and August, seven of 13 treated properties
  treated properties with host-seeking larvae present (cloth drags): 54%
Ixodes scapularis; course of the study, except one engorged larva in August and one larva in September
  larvae on treated mice: not present
Ixodes scapularis; August (untreated 9.1)
  mean number of larvae/mouse: 0.03
Ixodes scapularis; July (untreated 4.5)
  mean number of larvae/mouse: 0
Ixodes scapularis; white-footed mice, fipronil-treated area, post-treatment June-September, bait boxes 0.43% then 1% w/w
  live nymphs on mice after fipronil treatment: not found
Borrelia burgdorferi; Peromyscus leucopus, fipronil area, 164 mice, April-September 1999 (untreated 69%)
  % of spirochete-infected mice: 38%
Borrelia burgdorferi; fipronil area, 12/13 properties (untreated 100%)
  % of properties with infected mice: 92%
Borrelia burgdorferi; post-treatment period, 26 young mice (body mass <17 g), fipronil area (untreated 30% of 26)
  young mice that became infected: none
Borrelia burgdorferi; recaptured adult white-footed mice following fipronil treatment
  No. of mice + at first capture, remained +: 18
Borrelia burgdorferi; [2]
  No. of mice − at first capture, became +: 4
  No. of mice − at first capture, remained −: 14
